Results reported in patent US12529700B2, “Methods for identifying cancer” (NDSU Research Foundation, priority 2021, dated 2026).

Tested on: MIA PaCa-2 cells
Test: Gemcitabine treatment, cell viability by CCK-8 assay
Type: cell-based, human
Settings: method says 20 μM for 48 hr
Method: Gemcitabine Treatment Cells were seeded in 96-well plates at a density of 10^4 cells/well. […] Cell viability was accessed by CCK-8 assay following the manufacturer's instructions. Briefly, a mixture of 10 μL of CCK-8 and 190 μL media was added into each well, and the cells were incubated for another 1 hr. The absorbance of each well was measured at 450 nm using a microplate reader. Each experiment was performed in 6 repeats.

Nc1ccn([C@@H]2O[C@H](CO)[C@@H](O)C2(F)F)c(=O)n1 [gemcitabine] was tested, and the “viability of malignant MIA PaCa-2 cells with vs without gemcitabine treatment” value was “dramatic decrease in viability”.
